Measured values reported in PMC4729767 (Theranostics, 2016).

Assays:
C6 cells = assay: Annexin V-FITC/PI apoptosis study; type: cell-based, murine; conditions: PTX 1 μg/mL, 24 h, flow cytometer, n = 3, mean ± SD
[1] = system: intracranial C6 glioma bearing mice; assay: Anti-glioma efficacy; type: in vivo, Balb/c mice; conditions: versus Saline; PTX 3 mg/kg i.v. x 6; n = 9
[2] = In vitro drug release by dialysis; type: physicochemical; conditions: dialysis (MWCO 8-14 kDa), PBS pH 7.4 with 0.1% Tween 80, 37 °C, 48 h, HPLC, n = 3

With `CC(=O)O[C@H]1C(=O)[C@@]2(C)[C@H]([C@H](OC(=O)c3ccccc3)[C@]3(O)C[C@H](OC(=O)[C@H](O)[C@@H](NC(=O)c4ccccc4)c4ccccc4)C(C)=C1C3(C)C)[C@]1(OC(C)=O)CO[C@@H]1C[C@@H]2O` [free PTX, Paclitaxel] the “apoptosis and necrosis rates of C6 cells” value (C6 cells) was 75.65 ± 1.77%, the Increased survival time [1] was 53% and the PTX release behavior [2] was ≤ 8 h.
